Values after ≈ are worked out from the molar mass of the structure shown. Read-outs that look alike come from different tables or passages of the source.
Columns and labels:
[1] = Toxicity in non-tumor bearing naive nude mice (body weight); type: in vivo; conditions: for body weight change: naive mice
Experimental: To assess toxicity of discodernolide on non-tumor bearing animals, four groups of 8 naive nude mice are dosed with the compound, iv, once (5 mg/kg, 7.5 mg/kg, 10 mg/kg, or 15 mg/kg). The control group is dosed with the vehicle alone (16.7% Cremophor EL, 8.3% ethanol and 75% D5W). Body weights are recorded once weekly.

[2] = tested on: 1A9PTX22 cells (β-tubulin mutation); assay: In vitro cytotoxicity assay (MTT); type: cell-based, human
Experimental: 1A9 and 1A9PTX22 cells are plated in 96-well plates at 5×10^4 cells/well, plced in a tissue culture incubator and allowed to attach overnight. The next morning, the number of viable cells in the “time 0” plate (3 wells for each cell line) is determined using an MTT assay (Alley M C, et al., Cancer Res. 1988, 48:589-601).
At the same time drugs are added in serial, 10-fold dilutions, to the experimental plates. Corresponding vehicles are added to control plates. Experimental and control plates are then incubated in the tissue culture incubator for 72 hours. After the incubation the number of viable cells is determined in each plate using the MTT assay. IC50s (defined as a concentration of a given compound causing 50% inhibition of cell growth) are determined by comparing cell growth in the drug-treated plate (T−T0) to the cell growth in the corresponding control plate (C−T0). For each experiment results are calculated using average numbers from two sets of plates.
(§1) Discodermolide is isolated from the sponge Discodermia dissoluta using the method of Gunasekera SP (supra). Multiple batches of compound of similar purity (all>95% pure, as determined by mass spectrometry, and nuclear magnetic resonance analysis) are used throughout the various studies. For the in vitro cytotoxicity assays all compounds are dissolved in DMSO and are added to the plates with cells to obtain desired concentrations. […] Paclitaxel is purchased from Sigma/Aldrich, (St. Louis, Mo.). For the in vivo hollow fiber assay, solid discodermolide is dissolved in pure ethanol to create a stock solution which is diluted just before dosing with Cremophor EL and D5W to a final concentration of 16.7% Cremophor EL, 8.3% ethanol and 75% D5W. The compound is administered to mice as a single, 15 mg/kg iv injection. Positive control animals receive clinical formulations of paclitaxel (TAXOL) diluted 4-fold with D5W (12.5% Cremophor El, 12.5% ethanol and 75% D5W final concentrations) and administered iv, at 15 mg/kg, once daily for five consecutive days. Vehicle controls are administered according to the corresponding drug schedules.

[3] = tested on: 1A9 cell line; assay: In vivo hollow fiber assay in nude mice
Experimental: (§2) PVDF hollow fibers (Spectrum, Gardena, Calif.) are soaked in 70% EtOH for 72 hours before use. After this step, all handling of fibers are done under a biological laminar flow hood using aseptic procedures. Individual fibers are flushed with 3 mL of the ice-cold tissue culture media using a syringe equipped with a 20-gauge needle. Next, each fiber is filled with an appropriate cell suspension (1×10^6 cells/mL for the 1A9 and 1A9PTX22 cells, and 0.5×10^6 cells/mL for the LS 174T cells), and both ends of the fiber are sealed with a hot flat needle holder. The entire length of the fiber is then sealed into 1.5 cm microcapsules (further called “hollow fibers”), each containing approximately 15 uL of the appropriate cell suspension. After separation, individual hollow fibers are placed in 6 well plates (6 fibers in 5 mL media per well), and are incubated overnight at 37° C. in the tissue culture incubator.
(§3) Outbred athymic (nu/nu) female mice (“Chrls:Athymic Nude-nu”, Charles River Laboratories, Wilmington, Mass.) are anesthetized with ip injections of Ketamine/Xylazine (150 mg/kg, and 12 mg/kg body weight, respectively). For the subcutaneous implantation an 11-gauge trocar containing one or two hollow fibers is inserted into an incision made with scissors at the nape of the neck of an animal, and fibers are released by retracting the trocar while depressing the plunger. This procedure is repeated until all three hollow fibers are implanted. One wound clip is used to close the skin incision After the surgery each animal receives a single, subcutaneous injection of 0.4 mg/kg butorphenol to relieve any potential pain. Animals recover from the anesthesia on a heating pad, before retuning to their cages.
(§4) One day after the implantation (3 hollow fibers/animal, each hollow fiber containing one cell line: LS 174T, 1A9, and 1A9PTX22) animals are randomly sorted into five groups of six mice/group. The first group is sacrificed; hollow fibers are retrieved, and processed according to a published procedure (Hollingshead M G, et al. Life Sciences 1995, 57(2):131-141), to determine the number of viable cells in each fiber (T0.)
(§5) On day 6 all animals are sacrificed, and hollow fibers are retrieved, and processed according to Hollingshead, M G, (supra) to determine the number of viable cells in each fiber (T—for fibers from animals treated with experimental compounds, C—for fibers from animals treated with corresponding vehicles). Antitumor activity is expressed as % Mean ΔT/Mean ΔC [comparing cell growth for treatment group to vehicle control group, where % Mean ΔT/Mean ΔC=(Mean T—Mean T0/Mean C—Mean T0)×100%]. Regressions are calculated using the formula: (1−Mean T/Mean T0)×100%. Statistical significance of the results is uniformly evaluated using a two-tailed Student's t-test.
as §1

[4] = tested on: 1A9PTX22 cell line; assay: In vivo hollow fiber assay in nude mice
Experimental: as §2, §3, §4, §5, §1

[5] = tested on: LS 174T cell line; assay: In vivo hollow fiber assay in nude mice
Experimental: as §2, §3, §4, §5, §1

[6] = tested on: 1A9PTX22 cell line; conditions: cited from earlier work
[7] = first experiment, discodermolide single 15 mg/kg iv
[8] = second experiment, discodermolide single 15 mg/kg iv
[9] = first experiment, paclitaxel iv 15 mg/kg once daily for 5 days
[10] = second experiment, paclitaxel iv 15 mg/kg once daily for 5 days

For `C=C/C=C\[C@H](C)[C@H](OC(N)=O)[C@@H](C)[C@H](O)[C@@H](C)C/C(C)=C\[C@H](C)[C@@H](O)[C@@H](C)/C=C\[C@@H](O)C[C@@H]1OC(=O)[C@H](C)[C@@H](O)[C@H]1C` [discodermolide, (+)-Discodermolide], the body weight lost ([1]; naive athymic nude mice, single injections, one week after dosing) was “no more than 4%”, the body weight change ([1]; single iv 5 mg/kg, one week after dosing) was “+8.7%” and the body weight change ([1]; single iv 5 mg/kg, three weeks after dosing) was “+9.4%”. The body weight change ([1]; single iv 5 mg/kg, two weeks after dosing) was “+9.4%”, the body weight change ([1]; single iv 7.5 mg/kg, one week after dosing) was “+1.2%” and the body weight change ([1]; single iv 7.5 mg/kg, three weeks after dosing) was “+7.7%”. The body weight change ([1]; single iv 7.5 mg/kg, two weeks after dosing) was “+3.2%”, the body weight change ([1]; single iv 10 mg/kg, one week after dosing) was −1.2% and the body weight change ([1]; single iv 10 mg/kg, three weeks after dosing) was “+5.6%”. For the same molecule, the body weight change ([1]; single iv 10 mg/kg, two weeks after dosing) was “+1.2%”, the body weight change ([1]; single iv 15 mg/kg, one week after dosing) was −4.1% and the body weight change ([1]; single iv 15 mg/kg, three weeks after dosing) was “+5.90%”. For the same molecule, the body weight change ([1]; single iv 15 mg/kg, two weeks after dosing) was −0.4%, the IC50 ([2]; 1A9PTX22 cells, 72 hours, second experiment) was 3 ng/mL (≈ 0.00505 µM) and the IC50 ([2]; Homo sapiens, 1A9/ptx-22, 72 h) was 3 ng/mL (≈ 0.00505 µM). For the same molecule, the T/C [3, 7] was 8%, the T/C [3, 8] was 14% and the T/C [4, 7] was −13%. The regression ([4]; first study, discodermolide single 15 mg/kg iv, p<0.01) was 13%, the T/C [4, 8] was 13% and the T/C [5, 7] was 7%. It also gave a T/C [5, 8] of 13%.
For `CC(=O)O[C@H]1C(=O)[C@@]2(C)[C@H]([C@H](OC(=O)c3ccccc3)[C@]3(O)C[C@H](OC(=O)[C@H](O)[C@@H](NC(=O)c4ccccc4)c4ccccc4)C(C)=C1C3(C)C)[C@]1(OC(C)=O)CO[C@@H]1C[C@@H]2O` [paclitaxel, reference compound], the IC50 ([2]; Homo sapiens, 1A9/ptx-22, 72 h, 1A9PTX22 cells, 72 hours, first experiment, read-out: IC50) was 15 ng/mL (≈ 0.0176 µM), the IC50 ([2]; Homo sapiens, 1A9/ptx-22, 72 h, 1A9PTX22 cells, 72 hours, second experiment, read-out: IC50) was 9 ng/mL (≈ 0.0105 µM) and the “fold resistance of 1A9PTX22 versus parental 1A9” value ([2]; from IC50s of the two in vitro experiments) was 20 fold. It also gave a T/C [3, 9] of −8%, a T/C [3, 10] of 2% and a T/C [4, 9] of 79%. It also gave a T/C [4, 10] of 90%, a T/C [5, 9] of 3% and a T/C [5, 10] of 8%. The “fold less sensitive than 1A9 (reported)” value ([6]; PTX-22 subline) was 20-30 fold and the “fold resistance of 1A9PTX22 versus parental 1A9” value ([6]; in vitro, Giannakakou et al. 1997) was 24 fold.

Reference: patent publication US6774143B1, “Method for treating cells resistant to antineoplastic agents” (Novartis AG, priority 2003, dated 2004)
